5 compounds from ChEMBL document CHEMBL1127854, “Bromobenzofuran-based non-peptide antagonists of angiotensin II: GR138950, a potent antihypertensive agent with high oral bioavailability” (J Med Chem, 1994) can be followed below.

Structures are written as SMILES.

Data set [1] can be described thus: The compound was tested for volume of distribution in rat. The class given is ADME, organism-based. To be noted: in vivo.
The nature of data set [2]: Bioavailability in rat. Particulars: in vivo. The class given is ADME, organism-based.
The nature of data set [3]: Half-life in plasma of rat. The format is ADME, organism-based.
The nature of data set [4]: The compound was tested for plasma clearance in rat. The class given is ADME, organism-based.
The target of data set [5] is T1, Angiotensin II receptor (Rattus norvegicus, UniProt P29089+P25095+P35351).
T1 sequence (P29089 whole entry): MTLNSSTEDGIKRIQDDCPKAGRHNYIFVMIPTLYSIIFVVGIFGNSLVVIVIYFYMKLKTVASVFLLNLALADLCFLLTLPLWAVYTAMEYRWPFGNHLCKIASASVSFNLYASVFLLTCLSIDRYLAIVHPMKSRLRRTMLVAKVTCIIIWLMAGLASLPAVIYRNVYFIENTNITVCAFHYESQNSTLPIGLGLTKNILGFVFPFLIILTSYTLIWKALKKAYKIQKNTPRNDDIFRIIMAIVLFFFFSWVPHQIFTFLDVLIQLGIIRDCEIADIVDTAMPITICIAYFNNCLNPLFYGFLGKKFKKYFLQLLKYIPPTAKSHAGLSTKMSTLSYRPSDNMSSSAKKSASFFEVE
T1 sequence (P25095 whole entry): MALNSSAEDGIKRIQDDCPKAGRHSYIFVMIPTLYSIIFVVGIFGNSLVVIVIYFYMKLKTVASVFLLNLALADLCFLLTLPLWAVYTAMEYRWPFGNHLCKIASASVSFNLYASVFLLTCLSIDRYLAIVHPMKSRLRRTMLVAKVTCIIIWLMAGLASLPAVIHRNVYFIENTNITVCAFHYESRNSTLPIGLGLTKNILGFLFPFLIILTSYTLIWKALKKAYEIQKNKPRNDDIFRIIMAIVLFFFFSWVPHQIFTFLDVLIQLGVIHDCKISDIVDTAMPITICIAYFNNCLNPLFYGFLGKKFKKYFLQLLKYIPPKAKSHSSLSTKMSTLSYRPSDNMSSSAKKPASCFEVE
T1 sequence (P35351 whole entry): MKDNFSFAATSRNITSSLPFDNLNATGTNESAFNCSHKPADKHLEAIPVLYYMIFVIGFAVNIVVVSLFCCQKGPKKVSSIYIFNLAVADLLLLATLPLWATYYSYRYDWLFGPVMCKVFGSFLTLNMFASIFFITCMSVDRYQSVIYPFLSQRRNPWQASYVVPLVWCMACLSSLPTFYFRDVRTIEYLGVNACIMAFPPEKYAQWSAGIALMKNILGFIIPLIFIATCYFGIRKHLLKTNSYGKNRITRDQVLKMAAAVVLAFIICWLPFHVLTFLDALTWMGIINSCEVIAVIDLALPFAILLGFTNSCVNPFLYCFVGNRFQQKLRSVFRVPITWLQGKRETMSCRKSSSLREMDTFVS
Kind of data set: Tested for in vitro binding affinity against angiotensin II receptor of rat liver.

Data set [6] concerns Rattus norvegicus. Nature of the data set: […] antihypertensive activity in renal hypertensive rat at 0.5 mg/kg after 24 hr of oral administration. The class given is functional.
Data set [7] deals with Rattus norvegicus. Nature of the data set: […] antihypertensive activity in renal hypertensive rat at 0.5 mg/kg after 7 hr of oral administration. The format is functional.
The test system of data set [8] is Rattus norvegicus. Kind of data set: […] antihypertensive activity in renal hypertensive rat at 0.5 mg/kg after 5 hr of oral administration. The class given is functional.
Data set [9] deals with Rattus norvegicus. Kind of data set: In vivo antihypertensive activity in renal hypertensive rat at 1.0 mg/kg after 5 hr of oral administration.
Data set [10] is described as follows: The compound was tested for volume of distribution in rat at dose of 3-10 mgkg. The format is ADME, organism-based. Particulars: in vivo.
A short description of data set [11]: Bioavailability in rat (dose 3-10 mg/kg). Particulars: in vivo. The format is ADME, organism-based.
Data set [12] can be described thus: The compound was tested for plasma clearance in rat at dose of 3-10 mgkg. The format is ADME, organism-based.
The nature of data set [13]: Half-life in plasma of rat at dose of […]-[…] mgkg. The class given is ADME, organism-based.
A short description of data set [14]: The compound was tested for volume of distribution in dog. The class given is ADME, organism-based, Canis lupus familiaris. To be noted: in vivo.
Data set [15] can be described thus: The compound was tested for plasma clearance in dog. The class given is ADME, organism-based, Canis lupus familiaris.
Data set [16] is described as follows: Half-life in plasma of dog. The format is ADME, organism-based, Canis lupus familiaris.

In [1], `CCCc1nc(C)c(C(=O)NCC)n1Cc1ccc2oc(-c3ccccc3NS(=O)(=O)C(F)(F)F)c(Br)c2c1` had a Vd of 11 L/kg. Besides, the bioavailability in data set [2] came to 90%. In data set [3], this compound gave a half-life of 4.5 h. In data set [4], the clearance is 29 mL/min/kg. The “Log Ki” value in data set [5] was -9.5. Also, the figures for the Activity in data set [6], in data set [7] and in [8] were -30, -48 and -33, respectively.
On to `CCc1nc(C2CC2)c(C(N)=O)n1Cc1ccc2oc(-c3ccccc3NS(=O)(=O)C(F)(F)F)c(C(F)(F)F)c2c1`, for which the “Log Ki” value in [5] is -9. In addition, the Activity in data set [6] is -17; in [7] it was -49; in [9], -48.
Turning to `CCc1nc(C2CC2)c(C(N)=O)n1Cc1ccc2oc(-c3ccccc3NS(=O)(=O)C(F)(F)F)c(Cl)c2c1`, the “Log Ki” value in data set [5] is reported as -8.9. The values for the Activity in data set [6], in [7] and in data set [9] were -42, -60 and -57, respectively.
In data set [10], `CCCCc1nc(Cl)c(CO)n1Cc1ccc2oc(-c3ccccc3-c3nn[nH]n3)c(Br)c2c1` gave a Vd of 1.3 L/kg. In addition, the bioavailability in data set [11] is 37%. The compound further had a clearance in data set [12] of 18 mL/min/kg. Further, in data set [13], the half-life was 1 h.
The compound `CCc1nc(C2CC2)c(C(N)=O)n1Cc1ccc2oc(-c3ccccc3NS(=O)(=O)C(F)(F)F)c(Br)c2c1` displayed a distribution volume (Vd) in data set [14] of 0.9 L/kg. The same compound showed a clearance in [15] of 1.6 mL/min/kg. The half-life in data set [16] was 9.3 h. Also, in data set [5], the “Log Ki” value was -9.3. The Activity in data set [6] is recorded as -38; in [7], -76; in data set [8] it was -66.
